According to patent US5504244A, “Alkylarylketo acids” (Boehringer Ingelheim Pharmaceuticals, Inc., priority 1993, dated 1996):
Like-named read-outs stand apart in the source and are kept apart here.

What was measured:
[1] = test system: 5-HETE biosynthesized by glycogen-stimulated polymorphonuclear leucocytes (PMNs); assay: Hydroxyacid Profile Assay (HPA): inhibition of 5-HETE synthesis in glycogen-elicited rabbit PMNs; type: cell-based; settings: Oryctolagus cuniculus, Leucocyte; for inhibition at 100 µM: 5-HETE synthesis, read-out: Percent Inhibition (100 μM); for IC50: read-out: IC50 (50% inhibition of 5-HETE synthesis)
Method: As previously noted 5-HETE biosynthesis serves as a marker for arachidonic acid metabolism via the 5-lipoxygenase pathway which produces (poly)hydroxyeicosatetraenoic acids and the potent bronchoconstrictor and vasoactive leukotrienes LTC4, LTD4 and LTE4.
Buffer A (8.70 g NaCl; 0.27 g KCl; 0.42 g Na2 HPO4; 0.76 g KH2 PO4; and 1.00 g dextrose per liter H2 O; pH 7.0) (0.325 ml) is introduced into each of a battery of screwtop culture tubes. Then, a solution of a compound (0.100 ml) to be assayed is dispensed into individual tubes. Assays are performed in duplicate at 100 μM and 10 μM concentrations. Control tubes receive Buffer A (0 100 ml) in lieu of compound. Next, rabbit PMNs (2×10^7 cells/tube; 4×10^7cells/ml) (0.500 ml) are added to each tube. The rabbit PMN's used are elicited with glycogen and made into a preparation substantially as described by F. Hirata. et al (1979) Proc. Natl. Acad. Sci. USA, 76, 2640-2643. The tubes are vortexed and preincubated in a shaking 37° C. water bath for 15 minutes.
Thereafter, the tubes are removed from the water bath and calcium ionophore solution (400 μg/ml A-23187; Sigma Chemical Co., St. Louis, Mo.) (0.025 ml), ^14 C-arachidonic acid (0.25 μCi in 0.025 ethanol; New England Nuclear Products, Boston, Mass.) (0.025 ml) and calcium chloride solution (CaCl2.2H2 O ); 105.8 mg/10 […]) (0.025 ml) are added in that order. The tubes are vortexed and returned to the water bath for 30 minutes. The reaction is then terminated by the addition of HCl (0.8N, 0.025 ml).
Extraction and concentration of ^14 C-labeled 5-HETE is performed as follows. First, solution containing 2 parts ethyl acetate, 3 parts CH2 Cl2 and 0.01 ml unlabeled arachidonic acid is added (5.01 ml) to each tube. The tubes are capped and briefly vortexed. The contents of each tube is poured into a polypropylene column fitted with a porous polyethylene disc and Whatman phase separation filter paper. The organic phase is collected by gravity filtration into a conical centrifuge tube, While the aqueous phase is retained in the column by the phase separation paper. Each culture tube is rinsed once with the EtOAc:CH2 Cl2 solution (1.0 ml) and the wash added to the column. The organic phase is concentrated to (0.5 ml) using a Savant Speed Vac concentrator (Savant Instruments, Inc., Hicksville, N.Y.).
After concentration of the organic phase, the tubes are vortexed and stored covered on ice. An aliquot (0.01 ml) is then removed for liquid scintillation counting in a Beckman LS7500 Liquid Scintillation Counter (Beckman Instruments Corp., Fullerton, Calif.). Based on the count, the number of μl containing 1×10^5 cpm is calculated. This volume is applied to a silica gel covered glass plate in a 10 mm streak. The remaining fluid in the tube is measured via syringe and noted.
The TLC plate is placed in a chromatography chamber containing the following solvent system: CHCl3 :MeOH:HOAc:H2 O (v/v;90: 9:1:0.65). The plate is then air dried and counted on a Berthold Linear TLC Analyzer (Berthold Instruments, Inc., Pittsburgh, Pa.) for 30 minutes per lane if a dose response curve had been run, or for 5 min per lane if drug screening had been done. The integrated area of the 5-HETE band for each compound is converted to percent of control and analyzed. The percent inhibition at 100 μM compound concentration and the concentration (μM) which produces a 50% inhibition of 5-HETE synthesis (IC50), are determined for those compounds described in Examples 1-36, and are reported in Table 1 .

[2] = test system: guinea pig ileal strips; assay: Modified Schultz-Dale Assay: inhibition of antigen-induced anaphylactic contraction of passively sensitized ileal strips; type: cell-based; settings: Cavia porcellus; for IC50: value in parentheses
Method: In the classic Schultz-Dale assay, guinea pigs are sensitized with a known immunogen or passively sensitized with guinea pig antiserum to the immunogen, strips of ilea are recovered, and the extent of their contraction in response to a challenge exposure to the same antigen is observed as a measure of anaphylactic response. The experiments described here follow this same procedure while exposing the ileal strips to test compound before exposure to antigen challenge (preincubation) and, in some strips, also after antigen challenge (postincubation).
The male Hartley strain guinea pigs (450-650 g) whose ilea are used in this Schultz-Dale assay are passively sensitized with IgE antiovalbumin antiserum as follows. The antiserum is developed in another group of similar guinea pigs as described in Graziano, et al., J. Immunol. 127:1067-1070 (1981) and pooled. The test animals are then each passively sensitized by subcutaneous injection of the pooled antiserum (1 ml).
About 2-7 days after sensitization, the guinea pigs are sacrificed and the terminal ilea are removed. They are cut into strips (6 cm) and positioned in tissue baths (5 ml) of Tyrode's solution with atropine (1 μg/ml) at 37° C. One end of each strip is fixed to an immobile post and the other movably mounted to a Grass Ft. 0.03 linear force displacement transducer and a Grass Model 7 polygraph. The tension is set (at 1 gram) and the tissue is allowed to equilibrate (10 minutes). Tissue viability is tested by establishing a consistent response to histamine (0.5 μg/ml). After several histamine-induced contractions, mepyramine (1 μg/ml) is added to inhibit any contractions due to the anaphylactic release of endogenous histamine.
A minimum of 3 animals are used for each compound tested and, of the 6 strips from each animal, 2 strips are incubated (preincubation) with a test compound (final concentration 75 μM), 2 with an appropriate reference standard (BW-755C at 75 μM) and 2 with saline solution (control) for a predetermined period (5 minutes). After this initial incubation period, ovalbumin (100 μg/ml) is added to each bath and the resulting anaphylactic contraction measured. The data are recorded as of tension produced by the tissue in excess of the 1 gram tension that was initially set. At the peak of the contraction, a dose of the same test compound (75 μM) is added (postincubation) to one control strip and reference standard (FPL-55712 at 1.9 μM). The strips are monitored (1 minute) and any effect on the established contraction is recorded as described above.
Two types of data are derived from the above protocol. First, pre-antigen inhibition (prechallenge) is expressed as the percent inhibition in each of the strips preincubated with test compound measured against the averaged contractions of the two control strips. Prechallenge inhibition by the reference standard is also determined in each experiment as a positive control. The reference used consistently gives 60-80% inhibition. Second, post-antigen inhibition (postchallenge) is determined by measuring the decrease in anaphylactic contraction of a control strip produced by adding either a test compound or standard at the peak of the contraction. The reference used consistently gives 70-90% inhibition. The data in each experiment, therefore, consists of 2 prechallenge and 1 postchallenge value for both test compound and standard.

[3] = added at peak of contraction after antigen, read-out: Postchallenge mean percent inhibition
[4] = preincubation before ovalbumin antigen, read-out: Prechallenge mean percent inhibition
[5] = added at peak of contraction after antigen, read-out: Postchallenge IC50
[6] = preincubation before ovalbumin antigen, read-out: Prechallenge IC50

Compound	inhibition at 100 µM [1]	IC50 [1]	inhibition at 75 µM [2, 3]	inhibition at 75 µM [2, 4]	IC50 [2, 5]	IC50 [2, 6]
CCCCCCCc1ccc(C(=O)[C@@H]2CCCC[C@H]2C(=O)O)cc1 (relative stereo) [Example 23, Trans-2-(4-heptylbenzoyl)cyclohexane-1-carboxylic acid]	70%	5 µM	76%	100%	> 25 µM	14 µM
CCCCCCCCCc1ccc(C(=O)[C@@H]2CCCC[C@H]2C(=O)O)cc1 (relative stereo) [Example 32, Trans-2-(4-n-nonylbenzoyl)cyclohexane-l-carboxylic acid]	85%	–	20%	92%	–	–
CCCCCCc1ccc(C(=O)CCCCC(=O)O)cc1 [Example 5, 5-(4-n-Hexylbenzoyl)pentanoic acid]	47%	–	58%	65%	–	–
CCCCCCCCc1ccc(C(=O)CCCCC(=O)O)cc1 [Example 6, 5-(4-n-Octylbenzoyl)pentanoic acid]	77%	–	0%	63%	–	–
CCCCCCCc1ccc(C(=O)CCCCC(=O)O)cc1[N+](=O)[O-] [Example 7, 5-(3-Nitro-4-n-heptylbenzoyl)pentanoic acid]	84%	–	28%	96%	> 75 µM	14 µM
CCCCCCCc1ccc(C(=O)CCCCC(=O)O)cc1N [Example 8, 5-(3-Amino-4-n-heptylbenzoyl)pentanoic acid]	47%	–	48%	94%	> 75 µM	37 µM
CCCCCCOc1ccccc1C(=O)CCCCC(=O)O [Example 13, 5-(2-n-Hexyloxybenzoyl)pentanoic acid]	64%	–	43%	87%	45 µM	15 µM
CCCCCc1ccc(C(=O)Cc2cccc(C(=O)O)c2)cc1 [Example 15, 3-(4-pentylphenacyl)benzoic acid]	78%	–	13%	81%	> 75 µM	27 µM
CCCCCCCc1ccc(C(=O)c2cccc(C(=O)O)c2)cc1 [Example 16, 3-(4-n-heptylbenzoyl)benzoic acid]	75%	4 µM	63%	86%	57 µM	12 µM
CCCCCCCc1ccc(C(=O)Cc2ccccc2C(=O)O)cc1 [Example 17, 2-(4-n-Heptylphenacyl)benzoic acid]	80%	–	100%	90%	33 µM	10 µM
CCCCCCCc1ccc(C(=O)Cc2cccc(C(=O)O)c2)cc1 [Example 18, 3-(4-n-Heptylphenacyl)benzoic acid]	73%	–	70%	97%	51 µM	10 µM
CCCCCCCCc1ccc(C(=O)Cc2cccc(C(=O)O)c2)cc1 [Example 19, 3-(4-n-Octylphenacyl)benzoic acid]	< 44%	–	30%	78%	> 75 µM	51 µM
CCCCCCCc1ccc(C(=O)CC(C)(C)CC(=O)O)cc1 [Example 24, 4-(4-Heptylbenzoyl)-3,3-dimethylbutanoic acid]	51%	–	43%	84%	40 µM	26 µM
CCCCOc1ccc(C(=O)c2cccc(C(=O)O)c2)c(OC)c1 [Example 25, 3-(4-Butoxy-2-methoxybenzoyl)benzoic acid]	70%	–	46%	84%	14 µM	22 µM
COc1ccc(C(=O)c2cccc(C(=O)O)c2)c(O)c1 [Example 27, 3-(2-Hydroxy-4-methoxybenzoyl)benzoic acid]	31%	–	14%	58%	–	–
CCCCCCOc1ccc(C(=O)c2cccc(C(=O)O)c2)c(C)c1 [Example 29, 3-(4-n-Hexyloxy-2-methylbenzoyl)-benzoic acid]	88%	–	38%	86%	–	–
Cc1ccc(C(=O)c2cccc(C(=O)O)c2)c(O)c1 [Example 30, 3-(2-Hydroxy-4-methylbenzoyl)benzoic acid]	47%	–	6%	26%	–	–
CCCCOc1ccc(C(=O)CCCCC(=O)O)cc1 [Example 33, 5-(4-n-Butoxybenzoyl)pentanoic acid]	49%	–	29%	63%	–	–
CCCCCCCc1ccc(C(=O)CCCC(=O)O)cc1 [Example 34, 4-(4-n-Heptylbenzoyl)butanoic acid]	76%	–	39%	79%	–	14 µM
O=C(O)c1cccc(C(=O)c2ccc(C3CCCCC3)cc2)c1 [Example 35, 3-(4-Cyclohexylbenzoyl)benzoic acid]	63%	–	43%	66%	> 75 µM	38 µM
